Laboratory results: patent US12466832B2, “Monohydrate and crystalline forms of 6-[(3S,4S)-4-methyl-1-(pyrimidin-2-ylmethyl)pyrrolidin-3-yl]-3-tetrahydropyran-4-yl-7H-imidazo[1,5-a]pyrazin-8-one” (Cardurion Pharmaceuticals, Inc., priority 2018, dated 2025)

Assays:
Assay type in all cases: physicochemical
[1] = Solubility repeat at pH 1.2 (reverse addition); details: pH 1.2 buffered media, pH 1.2, simulated gastric fluid, thermodynamic from solid, pH maintained at 1.2, reverse addition
Protocol: Procedure: pH 1.2 buffered media (0.4 ml) was added to two separate 7 ml vials. For each compound, material was added in portions to the pH 1.2 media. After each addition of compound, the vial was vortex mixed and the pH and appearance was recorded. The samples were adjusted to pH 1.2 with 1M HCl to within 0.05 of the desired pH unit. This was repeated until no further material was available (˜400 mg for each form, which would give a maximum concentration of around 1000 mg/ml if no adjustment was required).

[2] = Variable temperature XRPD (VT XRPD)
Protocol: For variable temperature (VT) experiments the samples were prepared and analysed in an Anton Paar chromed sample holder. A heating/cooling rate of 10° C./min was used with a 2 min isothermal hold before the measurement started. The measurement parameters are as per the standard screening data collection method (detailed above). Measurements were taken at the following temperatures: 25, 50, 75, 100, 160, and 25° C. The sample was then reanalyzed by XRPD after 1 h to check for complete rehydration.
MH1 was analysed at 25, 50, 75, 100, 160 and 25° C. (10° C./min heating rate and a 2 min wait before the measurement started) on the Empyrean. The sample was then reanalysed by XRPD after 10 and 20 min to check for rehydration.
(§1) Procedure: A second batch of MH2 material was prepared using the same procedure. This sample was then analysed by VTXRPD and by XRPD under vacuum.

XRPD under vacuum = test: XRPD under vacuum
Protocol: For vacuum experiments the samples were prepared and analysed in an Anton Paar chromed sample holder. The measurement parameters are as per the standard screening data collection method (detailed above), at 25° C. with no vacuum (I2). A vacuum of around 50 mbar was then applied and the sample measured every 5 min until the anhydrate pattern was obtained for three consecutive measurements (to ensure complete dehydration, up to sample I8). The vacuum was then released and the sample analysed every 5 min for 6 measurements (until sample I22). The sample was then reanalyzed by XRPD after 1 h to check for complete rehydration.
MH1 was analysed at 25° C. with no vacuum. A vacuum of around 50 mbar was then applied and the sample measured every 5 min until the anhydrate pattern was obtained for three consecutive measurements (to ensure complete dehydration). The vacuum was then released and the sample analysed every 5 min for 6 measurements before the front of the sample stage was removed.
as §1

[3] = Water activity experiments (slurries, XRPD)
Protocol: MH1 (30.0 mg) was weighed into HPLC vials and placed in a vacuum oven to dry over the weekend. All samples were then placed in a desiccator prior to use to ensure dryness. Solvent ([…]) was added and slurries agitated at either 25° C. or 5° C. Further MH1 was added to any solutions formed to return to a slurry. Ethyl acetate and methyl acetate were both dried prior to use. After four days, the samples were analysed by XRPD with minimum exposure to ambient conditions.
Selected samples were also characterised after standing at ambient for 2 days by XRPD, 1H NMR, TGA and DSC.

Compression studies = test: Compression studies
[4] = 0.5% water/EtOAc, Aw = 0.3, four days
[5] = 0.8% water/MeOAc, Aw = 0.4, four days
[6] = 1% water/EtOAc, Aw = 0.5, four days
[7] = 1.5% water/EtOAc, Aw = 0.6, four days
[8] = 2% water/EtOAc, Aw = 0.7, four days
[9] = 2.7% water/EtOAc, Aw = 0.8, four days
[10] = 7.5% water/MeOAc, Aw = 0.9, four days
[11] = EtOAc, Sieves, slurry four days

In the case of `C[C@@H]1CN(Cc2ncccn2)C[C@H]1c1cn2c(C3CCOCC3)ncc2c(=O)[nH]1` [MH1, 6-[(3S,4S)-4-methyl-1-(pyrimidin-2-ylmethyl)pyrrolidin-3-yl]-3-tetrahydropyran-4-yl-7H-imidazo[1,5-a]pyrazin-8-one], the Solubility [1] is reported as over 153 mg/mL, the “TGA post VT XRPD mass loss” value [2] is reported as 3.2% and the “Form by VT XRPD upon heating” value ([2]; 75° C.) is reported as “fully anhydrous”. The “Form by VT XRPD after cooling back” value ([2]; re-cooled to 25° C.) was “peaks corresponding to MH1 are present”, the “TGA post vacuum XRPD mass loss” value (XRPD under vacuum) was 3.4% and the “Time to fully hydrated by XRPD after ambient air admitted” value (XRPD under vacuum; after vacuum released and front of sample stage taken off) was 15 min. The “Time under vacuum to conversion to the anhydrate by XRPD” value (XRPD under vacuum; vacuum of around 50 mbar, 25° C.) was 10 min, the “Results for 5° C. (form by XRPD)” value [3, 4] was “MH1” and the “Results for 25° C. (form by XRPD)” value [3, 4] was “MH1”. For the same compound, the “Results for 5° C. (form by XRPD)” value [3, 5] was “MH1”, the “Results for 25° C. (form by XRPD)” value [3, 5] was “MH1” and the “Results for 5° C. (form by XRPD)” value [3, 6] was “New Form”. For the same compound, the “Results for 25° C. (form by XRPD)” value [3, 6] was “MH1”, the “Results for 5° C. (form by XRPD)” value [3, 7] was “New Form” and the “Results for 25° C. (form by XRPD)” value [3, 7] was “MH1”. The “Results for 5° C. (form by XRPD)” value [3, 8] was “New Form”, the “Results for 25° C. (form by XRPD)” value [3, 8] was “New Form” and the “Results for 5° C. (form by XRPD)” value [3, 9] was “New Form”. For the same compound, the “Results for 25° C. (form by XRPD)” value [3, 9] was “New Form”, the “Results for 5° C. (form by XRPD)” value [3, 10] was “New Form” and the “Results for 25° C. (form by XRPD)” value [3, 10] was “New Form”. The “Results for 5° C. (form by XRPD)” value [3, 11] was “MH1”, the “Results for 25° C. (form by XRPD)” value [3, 11] was “MH1” and the “Compression studies, form by XRPD” value (Compression studies) was “no conversion to the anhydrate”.
